For this experiment, the system named is BDF1 mice, P388 leukemia ip, median survival T/C. Description: NCI In Vivo Anticancer Drug Screen. Data for tumor model P388 Leukemia (intraperitoneal) in B6D2F1 (BDF1) mice. As to conditions: endpoint: median survival time, higher = longer survival. The procedure, abridged: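 Transplantable tumour in mice; compound vs vehicle dosing; survival scored; ratio of treated to control reported.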

Where [1] appears, read: dose: 50.0 mg/kg/injection, schedule: Q01DX009 (ip), vehicle: saline with Tween-80.
The mark [2] stands for this setting: dose: 100.0 mg/kg/injection, schedule: Q01DX009 (ip), vehicle: saline with Tween-80.
Where [3] appears, read: dose: 200.0 mg/kg/injection, schedule: Q01DX009 (ip), vehicle: saline with Tween-80.
[4] abbreviates: dose: 50.0 mg/kg/injection, schedule: Q01DX009 (ip), vehicle: saline.
[5] abbreviates: dose: 100.0 mg/kg/injection, schedule: Q01DX009 (ip), vehicle: saline.
The mark [6] stands for this setting: dose: 200.0 mg/kg/injection, schedule: Q01DX009 (ip), vehicle: saline.
Where [7] appears, read: dose: 100.0 mg/kg/injection, schedule: Q04DX003 (ip), vehicle: saline.

Values joined by “and” are separate entries in the source; they are usually repeats but may differ in a detail not shown here. Equal entries are not always repeated. Inconclusive results and toxic doses are left out.

Consider `Nc1cc(/C=C/c2ccc([N+](=O)[O-])cc2)nc2ccccc12`, for which the T/C is 101 % of control (dose: 25.0 mg/kg/injection, schedule: Q04DX002 (ip), vehicle: saline with Tween-80); 88 % of control under setting [1]; 117 % of control (dose: 50.0 mg/kg/injection, schedule: Q04DX002 (ip), vehicle: saline with Tween-80); 94 % of control under setting [2]; 94 % of control under setting [3]; 88 % of control (dose: 200.0 mg/kg/injection, schedule: Q04DX002 (ip), vehicle: saline with Tween-80).

Consider `NC(=O)c1cn(C2OC(CO)C(O)C2O)c2ncnc(N)c12` (configuration not stated), for which the T/C (dose: 0.18 mg/kg/injection, schedule: Q01DX009 (ip), vehicle: saline with Tween-80) is 183 % of control; the T/C (dose: 0.25 mg/kg/injection, schedule: Q01DX010 (ip), vehicle: water) was 181 % of control; the T/C (dose: 0.37 mg/kg/injection, schedule: Q01DX009 (ip), vehicle: saline with Tween-80) is 162 % of control; the T/C (dose: 0.5 mg/kg/injection, schedule: Q01DX010 (ip), vehicle: water) is 190 % of control; the T/C (dose: 0.5 mg/kg/injection, schedule: Q04DX003 (ip), vehicle: saline) is 163 % of control; the T/C (dose: 0.75 mg/kg/injection, schedule: Q01DX009 (ip), vehicle: saline with Tween-80) is 187 % of control and 200 % of control. Further, the T/C was 177 % of control (dose: 0.75 mg/kg/injection, schedule: Q01DX010 (ip), vehicle: water); 195 % of control (dose: 1.5 mg/kg/injection, schedule: Q01DX009 (ip), vehicle: saline with Tween-80); 154 % of control (dose: 1.5 mg/kg/injection, schedule: Q04DX003 (ip), vehicle: saline); 122 % of control (dose: 2.0 mg/kg/injection, schedule: Q04DX003 (ip), vehicle: saline with Tween-80); 195 % of control (dose: 3.0 mg/kg/injection, schedule: Q04DX003 (ip), vehicle: saline with Tween-80); 195 % of control (dose: 3.0 mg/kg/injection, schedule: Q04DX003 (ip), vehicle: saline). The T/C (dose: 6.0 mg/kg/injection, schedule: Q04DX003 (ip), vehicle: saline with Tween-80) is 190 % of control and the T/C (dose: 6.0 mg/kg/injection, schedule: Q04DX003 (ip), vehicle: saline) was 90 % of control.

As for `COC(=O)[C@@H](C)[C@@H](O)[C@@H](C)N`, the T/C by setting is: (dose: 100.0 mg/kg/injection, schedule: Q04DX003 (ip), vehicle: saline with Tween-80) 101 % of control; (dose: 200.0 mg/kg/injection, schedule: Q04DX003 (ip), vehicle: saline with Tween-80) 99 % of control; (dose: 400.0 mg/kg/injection, schedule: Q04DX003 (ip), vehicle: saline with Tween-80) 103 % of control.

`Cc1cnc2nc(N)[nH]c(=O)c2c1`: the T/C by setting is: (dose: 37.5 mg/kg/injection, schedule: Q04DX003 (ip), vehicle: saline sonified) 100 % of control; (dose: 75.0 mg/kg/injection, schedule: Q04DX003 (ip), vehicle: saline sonified) 110 % of control; (dose: 150.0 mg/kg/injection, schedule: Q04DX003 (ip), vehicle: saline sonified) 100 % of control.

For the compound `NC(=NCCCC(NC(=O)OCc1ccccc1)C(=O)NC(Cc1ccccc1)C(=O)OCc1ccccc1)NC(=O)OCc1ccccc1` (configuration not stated), the T/C (dose: 12.5 mg/kg/injection, schedule: Q01DX005 (ip), vehicle: saline with Tween-80) is 92 % of control; the T/C (dose: 25.0 mg/kg/injection, schedule: Q01DX005 (ip), vehicle: saline with Tween-80) is 92 % of control; the T/C (dose: 50.0 mg/kg/injection, schedule: Q01DX005 (ip), vehicle: saline with Tween-80) is 90 % of control and 101 % of control; the T/C (dose: 100.0 mg/kg/injection, schedule: Q01DX005 (ip), vehicle: saline with Tween-80) was 97 % of control; the T/C (dose: 200.0 mg/kg/injection, schedule: Q01DX005 (ip), vehicle: saline with Tween-80) is 107 % of control.

Turning to `COC(=O)/C=C/c1c[nH]c2nccnc12`, the T/C runs as follows: (dose: 25.0 mg/kg/injection, schedule: Q01DX009 (ip), vehicle: water) 104 % of control; (dose: 50.0 mg/kg/injection, schedule: Q01DX009 (ip), vehicle: water) 90 % of control and 112 % of control; (dose: 100.0 mg/kg/injection, schedule: Q01DX009 (ip), vehicle: water) 97 % of control and 109 % of control; (dose: 100.0 mg/kg/injection, schedule: Q04DX003 (ip), vehicle: water) 86 % of control; (dose: 200.0 mg/kg/injection, schedule: Q01DX009 (ip), vehicle: water) 115 % of control; (dose: 200.0 mg/kg/injection, schedule: Q04DX003 (ip), vehicle: water) 102 % of control. For the same compound, the T/C is, setting by setting: (dose: 300.0 mg/kg/injection, schedule: Q01DX009 (ip), vehicle: water) 106 % of control; (dose: 400.0 mg/kg/injection, schedule: Q01DX009 (ip), vehicle: water) 93 % of control; (dose: 400.0 mg/kg/injection, schedule: Q04DX003 (ip), vehicle: water) 102 % of control.

Regarding `CCCCNC1=CC(=O)CC(C)(C)C1`, the T/C under setting [4] is 105 % of control, the T/C under setting [5] was 111 % of control and the T/C under setting [6] is 107 % of control.

Consider `CCCCCCCCCCCC(O)CCCCC` (configuration not stated), for which the T/C was 120 % of control (dose: 100.0 mg/kg/injection, schedule: Q01DX009 (ip), vehicle: other); 115 % of control (dose: 200.0 mg/kg/injection, schedule: Q01DX009 (ip), vehicle: other); 115 % of control (dose: 400.0 mg/kg/injection, schedule: Q01DX009 (ip), vehicle: other).

For the compound `CC1(C)N=C(N)N=C(N)N1c1cccc(CN)c1`, the T/C is 90 % of control (dose: 12.5 mg/kg/injection, schedule: Q04DX003 (ip), vehicle: saline); 100 % of control (dose: 25.0 mg/kg/injection, schedule: Q01DX009 (ip), vehicle: saline); 100 % of control (dose: 25.0 mg/kg/injection, schedule: Q04DX003 (ip), vehicle: saline); 95 % of control and 105 % of control under setting [4]; 100 % of control (dose: 50.0 mg/kg/injection, schedule: Q04DX003 (ip), vehicle: saline); 90 % of control and 110 % of control under setting [5]. Besides, under setting [7], the T/C was 104 % of control.

On to `C/C(=C\Cl)CO`, for which the T/C (dose: 56.25 mg/kg/injection, schedule: Q01DX001 (ip), vehicle: saline) is 95 % of control; the T/C (dose: 56.25 mg/kg/injection, schedule: Q04DX003 (ip), vehicle: saline) was 100 % of control; the T/C (dose: 112.5 mg/kg/injection, schedule: Q01DX001 (ip), vehicle: saline) is 100 % of control; the T/C (dose: 112.5 mg/kg/injection, schedule: Q04DX003 (ip), vehicle: saline) was 95 % of control; the T/C (dose: 150.0 mg/kg/injection, schedule: Q01DX009 (ip), vehicle: alcohol) is 95 % of control; the T/C (dose: 225.0 mg/kg/injection, schedule: Q01DX001 (ip), vehicle: saline) was 90 % of control. The T/C runs as follows: (dose: 225.0 mg/kg/injection, schedule: Q01DX009 (ip), vehicle: alcohol) 100 % of control; (dose: 225.0 mg/kg/injection, schedule: Q04DX003 (ip), vehicle: saline) 90 % of control.

In the case of `CC1=NC2=NC(CCCC(=O)Nc3ccc(Cl)cc3)=NC3=CC=CC(=N1)N32`, the T/C is, setting by setting: (dose: 25.0 mg/kg/injection, schedule: Q01DX009 (ip), vehicle: saline with Tween-80) 104 % of control; under setting [1], 95 % of control; under setting [2], 99 % of control.

As to `CCOC(=O)CC(=O)c1ccc(C)cc1`, the T/C under setting [2] was 90 % of control and the T/C under setting [3] was 90 % of control.

In the case of `OCC(CO)(CO)CBr`, the T/C by setting is: under setting [5], 110 % of control; under setting [7], 90 % of control; under setting [6], 110 % of control; (dose: 200.0 mg/kg/injection, schedule: Q04DX003 (ip), vehicle: saline) 90 % of control; (dose: 400.0 mg/kg/injection, schedule: Q01DX009 (ip), vehicle: saline) 88 % of control; (dose: 400.0 mg/kg/injection, schedule: Q04DX003 (ip), vehicle: saline) 114 % of control.

(Values after PubChem BioAssay AID328 (DTP/NCI, 2004).)
